Where two headings read alike, the source gives them in different places.
Experiments:
Solubility in water = type: physicochemical
Description: It will be recognized that aqueous solubility of many compounds is pH dependent; in the case of such compounds the solubility of interest herein is at a physiologically relevant pH, for example a pH of about 1 to about 8.

[1] = Bioavailability of ABT-737 in a rat model; type: in vivo; conditions: regardless of formulation

SMILES | solubility (Solubility in water; pH 2, aqueous buffer, read-out: solubility in water at pH 2) [µg/mL] | solubility (Solubility in water; physiologically relevant pH, about 1 to about 8, read-out: solubility in water) [µg/mL] | Bioavailability [1] [%]
CC1(C)CCC(c2ccc(Cl)cc2)=C(CN2CCN(c3ccc(C(=O)NS(=O)(=O)c4ccc(N[C@H](CCN5CCOCC5)CSc5ccccc5)c(S(=O)(=O)C(F)(F)F)c4)cc3)CC2)C1 [ABT-263] | < 4 | < 10 | 
CN(C)CC[C@H](CSc1ccccc1)Nc1ccc(S(=O)(=O)NC(=O)c2ccc(N3CCN(Cc4ccccc4-c4ccc(Cl)cc4)CC3)cc2)cc1[N+](=O)[O-] [ABT-737, N-(4-(4-((4′-chloro-(1,1′-biphenyl)-2-yl)methyl)piperazin-1-yl)benzoyl)-4-(((1R)-3-(dimethylamino)-1-((phenylsulfanyl)methyl)propyl)amino)-3-nitrobenzene-sulfonamide] |  |  | ≤ 6
